Consider five molecules from patent publication US12116348B2, “Substituted benzimidazole compound and composition comprising same” (Shenzhen TargetRx, Inc., priority 2017, dated 2024).

Series [1] can be described thus: Metabolic stability evaluation in mouse liver microsomes. The class given is in vitro ADME. The note with it: SD, pH 7.4, mouse liver microsomes 0.5 mg/mL, compound 1 μM; for microsomal CLint at 1 μM: liver intrinsic clearance; for half-life at 1 μM: NADPH, 37° C. As for the experimental part:
(2) Metabolic Stability Evaluation
Microsome assay: mouse liver microsomes: 0.5 mg/mL, Xenotech; coenzyme (NADPH/NADH): 1 mM, Sigma Life Science; magnesium chloride: 5 mM, 100 mM phosphate buffer (pH 7.4).
Preparation of stock solutions: Powder of the example compounds were accurately weighed and dissolved in DMSO to 5 mM respectively.
Preparation of phosphate buffer (100 mM, pH7.4): A pre-prepared 0.5M potassium dihydrogen phosphate (150 mL) was mixed with 0.5M dibasic potassium phosphate (700 mL). The pH of the mixture was adjusted to 7.4 with 0.5M dibasic potassium phosphate solution. The mixture was diluted 5-fold with ultrapure water before use, and magnesium chloride was added to obtain a phosphate buffer (100 mM) containing 100 mM potassium phosphate, 3.3 mM magnesium chloride, pH 7.4.
A NADPH regeneration system solution (containing 6.5 mM NADP, 16.5 mM G-6-P, 3 U/mL G-6-P D, 3.3 mM magnesium chloride) was prepared and placed on wet ice prior to use.
Preparation of stop solution: an acetonitrile solution containing 50 ng/mL propranolol hydrochloride and 200 ng/mL tolbutamide (internal standard). 25057.5 μL of phosphate buffer (pH 7.4) was taken into a 50 mL centrifuge tube, to which 812.5 μL of SD mouse liver microsomes were added, and mixed to obtain a liver microsome dilution with a protein concentration of 0.625 mg/mL.
Incubation of the samples: The stock solutions of the respective compounds were respectively diluted to 0.25 mM with an aqueous solution containing 70% acetonitrile, and used as a working solution, ready for use. 398 μL of the dilutions of mouse liver microsomes were added to 96-well incubation plates (N=2), respectively, and 2 μL of 0.25 mM working solution was added respectively and mixed.
Metabolic stability assay: 300 μL of pre-chilled stop solution was added to each well of 96-well deep well plates and placed on ice as stop plates. The 96-well incubation plates and NADPH regeneration system were placed in a 37° C. water bath, shaken at 100 rpm and pre-incubated for 5 min. 80 μL of incubation solution was taken out from each well of the incubation plates and added to the stop plates, mixed, and replenished with 20 μL of NADPH regeneration system solution as a 0-min sample. 80 μL of NADPH regeneration system solution was added to each well of the incubation plates to start the reaction and start counting. […] Separately, 100 μL of the reaction solutions was taken at 10, 30, and 90 min after the reaction, respectively, added to stop plates, and vortexed for 3 minutes to terminate the reaction. The stop plates were centrifuged at 5000×g at 4° C. for 10 min. 100 μL of the supernatant was added to a 96-well plate to which 100 μL of distilled water was previously added, mixed, and analyzed by LC-MS/MS.
Data analysis: The peak areas of the corresponding compounds and internal standard were detected by LC-MS/MS system, and the ratio of the peak area of the compounds to the internal standard was calculated.
In general terms: Liver microsomes are a subcellular fraction often used to study metabolism.

Series [2] concerns HT-29 cells. As to the kind of experiment: Cytotoxicity experiment: viability of HT-29 cells (CellTiter-Glo). In kind it is cell-based. The following applies: Homo sapiens, 72 hours, CTG analysis, read-out: HT-29 cell IC50. As for the experimental part:
(1) Cytotoxicity Experiment
The inhibitory effects of the example compounds on the viability of HT-29 cells were tested.
Cell line: HT-29 (cell type: adherent; number of cells/well: 3000; medium: RPMI-1640+10% FBS) was cultured under the condition of 37° C., 5% CO2, and 95% humidity.
Materials and Reagents: Fetal bovine serum (FBS, GBICO, Cat. No. 10099-141), CellTiter-Glo® Luminescent Cell Viability Assay (Promega, Cat. No. G7572), 96-well plate with transparent flat bottom and black walls (Corning®, Cat. No. 3603).
Instruments: SpectraMax multi-label microplate reader, MD, 2104-0010A; CO2 incubator, Thermo Scientific, Model 3100 Series; biosafety cabinet, Thermo Scientific, Model 1300 Series A2; inverted microscope, Olympus, CKX41SF; refrigerator, SIEMENS, KK25E76TI.
• 1) Cell culture and inoculation: i) cells in the logarithmic growth phase were harvested and counted using a […]. The cell viability was determined by trypan blue exclusion method to ensure that the cell viability was greater than 90%; ii) the cell concentration was adjusted; and 90 μL of the cell suspension was added into a 96-well plate, respectively; iii) the cells in the 96-well plate were cultured overnight under the condition of 37° C., 5% CO2 and 95% humidity. • 2) Drug dilution and dosing: i) the 10-fold drug solutions were prepared with a maximum concentration of 100 μM, which was diluted using a 3.16-fold serial gradient dilution, resulting in 9 concentrations. 10 μL of the drug solutions was added to each well of the 96-well plate inoculated with cells; and each drug concentration was tested in triplicate; ii) the cells in the 96-well plate added with drugs were cultured under the condition of 37° C., 5% CO2 and 95% humidity for 72 hours, and then CTG analysis was carried out. • 3) Plate reading at the end point: i) CTG reagent was thawed and the cell plate was equilibrated to room temperature for 30 minutes; ii) equal volume of the CTG solution was added to each well; iii) the cell plate was shaked on the orbital shaker for 5 minutes to lyse the cells; iv) the cell plate was placed at room temperature for 20 minutes to stabilize the cold light signal; v) the cold light values were read.
Data processing: GraphPad Prism 5.0 software was used to analyze the data, and the data was fitted using the non-linear S-curve regression to get a dose-effect curve, and IC50 values were calculated accordingly. Cell viability (%)=(Lum of test drug−Lum of medium control)/(Lum of cell control−Lum of medium control)×100%.
For orientation: In ATP-based viability assays light output follows the ATP content of the culture.

By microsomal CLint is commonly meant the rate of metabolic loss divided by the concentration. Lower therefore signals greater metabolic stability. A word on the half-life: it is how long it takes for the measured level to halve. Lower therefore signals fast loss. In series [1], `[2H]C([2H])(O)C([2H])([2H])ONC(=O)c1cc2c(ncn2C)c(F)c1Nc1ccc(Br)cc1Cl` [A-6, 6-(4-bromo-2-chlorophenylamino)-7-fluoro-3-methyl-3H-benzimidazole-5-carboxylic acid (2-hydroxyethoxy-1,1,2,2-d4)amide] showed a microsomal CLint at 1 μM of 19.8 µL/min/mg and a half-life at 1 μM of 1.17 h.

In general, IC50 refers to the point on the concentration scale where inhibition reaches its midpoint. For the molecule `[2H]C([2H])(O)CONC(=O)c1cc2c(ncn2C)c(F)c1Nc1ccc(Br)cc1Cl` [A-4, 6-(4-bromo-2-chlorophenylamino)-7-fluoro-3-methyl-3H-benzimidazole-5-carboxylic acid (2-hydroxyethoxy-2,2-d2)amide], the concentration for half-maximal inhibition (IC50) in series [2] was below 0.5 nM. Moreover, in series [1], the microsomal CLint at 1 μM amounted to 24.6 µL/min/mg and the half-life at 1 μM was determined as 0.94 h.

Consider `[2H]C([2H])([2H])n1cnc2c(F)c(Nc3ccc(Br)cc3Cl)c(C(=O)NOCCO)cc21` [A-1, 6-(4-bromo-2-chloro-phenylamino)-7-fluoro-3-(methyl-d3)-3H-benzimidazole-5-carboxylic acid (2-hydroxyethoxy)-amide], for which the half-inhibitory concentration (IC50) in series [2] was below 0.5 nM. For the same molecule, in series [1], the microsomal CLint at 1 μM was determined as 19.7 µL/min/mg and the half-life at 1 μM is 1.17 h.

For the molecule `[2H]C([2H])(O)CONC(=O)c1cc2c(ncn2C([2H])([2H])[2H])c(F)c1Nc1ccc(Br)cc1Cl` [A-5, 6-(4-bromo-2-chlorophenylamino)-7-fluoro-3-(methyl-d3)-3H-benzimidazole-5-carboxylic acid (2-hydroxyethoxy-2,2-d2)amide], in series [2], the concentration for half-maximal inhibition (IC50) was below 0.5 nM. For the same molecule, in series [1], the intrinsic clearance (microsomal CLint) at 1 μM came out at 20.9 µL/min/mg and the half-life at 1 μM came to 1.11 h.

As for `Cn1cnc2c(F)c(Nc3ccc(Br)cc3Cl)c(C(=O)NOCCO)cc21` [Selumetinib, 6-(4-bromo-2-chloro-phenylamino)-7-fluoro-3-methyl-3H-benzimidazole-5-carboxylic acid (2-hydroxy-ethoxy)-amide, reference compound], in series [2], the half-inhibitory concentration (IC50) is below 0.5 nM. Moreover, in series [1], the microsomal CLint at 1 μM is 23.6 µL/min/mg and the half-life at 1 μM came out at 0.978 h.
